These are literature values, as cited in paper PMC4468036 (Bioorganic & medicinal chemistry, 2014).

Molecules are shown by their SMILES.

In one data set the target is μ receptor. As to conditions: read-out: IC50 at μ receptor; selectivity of ML140.
For a further data set, the target named is δ receptor. As to conditions: read-out: IC50 at δ receptor; selectivity of ML140.

The term IC50 denotes the point on the concentration scale where inhibition reaches its midpoint. `Cc1ccc(S(=O)(=O)NCc2ccc(C(=O)NCCN(Cc3ccccc3)C(C)C)cc2)cc1` [ML140]: the IC50 on μ receptor is over 24 µM; at δ receptor, over 32 µM.
